Measured values: US20230053540A1, “TREATMENT OF LIVER INJURY” (Massachusetts Institute of Technology, priority 2019, published 2023)

Test system: hepatocytes
Experiment: Seq-Well scRNA-Seq of hepatocytes after APAP overdose (signature scores, DEG vs untreated)
Assay type: in vivo, mouse

CC(=O)Nc1ccc(O)cc1 [APAP, acetaminophen]
mt-Co2 pct.1 (APAP vs. UT): 0.157
mt-Co3 avg_logFC (APAP vs. UT): −0.9584
mt-Co3 pct.1 (APAP vs. UT): 0.198
mt-Cytb avg_logFC (APAP vs. UT): −0.8775
mt-Cytb pct.1 (APAP vs. UT): 0.971
mt-Nd1 avg_logFC (APAP vs. UT): −0.76
mt-Nd1 pct.1 (APAP vs. UT): 0.978
mt-Nd2 avg_logFC (APAP vs. UT): −0.8325
mt-Nd2 pct.1 (APAP vs. UT): 0.978
mt-Nd4 avg_logFC (APAP vs. UT): −1.116
mt-Nd4 pct.1 (APAP vs. UT): 0.942
mt-Nd5 avg_logFC (APAP vs. UT): −0.7797
mt-Nd5 pct.1 (APAP vs. UT): 0.942
mt-Rnr1 avg_logFC (APAP vs. UT): −0.3538
mt-Rnr1 pct.1 (APAP vs. UT): 1
mt-Rnr2 avg_logFC (APAP vs. UT): −0.5458
mt-Rnr2 pct.1 (APAP vs. UT): 1
n-R5-8s1 avg_logFC (APAP vs. UT): 0.6965
n-R5-8s1 pct.1 (APAP vs. UT): 0.268
1700017B05Rik avg_logFC (cluster A6 (APAP 6 hr)): 0.2894
1700017B05Rik pct.1 (cluster A6 (APAP 6 hr)): 0.255
2010003K11Rik avg_logFC (cluster A6 (APAP 6 hr)): 0.4872
2010003K11Rik pct.1 (cluster A6 (APAP 6 hr)): 0.396
Abca1 avg_logFC (cluster A6 (APAP 6 hr)): 0.5058
Abca1 pct.1 (cluster A6 (APAP 6 hr)): 0.604
Abhd2 avg_logFC (cluster A6 (APAP 6 hr)): 0.3593
Abhd2 pct.1 (cluster A6 (APAP 6 hr)): 0.37
Agpat9 avg_logFC (cluster A6 (APAP 6 hr)): 0.2968
Agpat9 pct.1 (cluster A6 (APAP 6 hr)): 0.277
Alb avg_logFC (cluster A6 (APAP 6 hr)): 0.4181
Alb pct.1 (cluster A6 (APAP 6 hr)): 1
Apoa4 avg_logFC (cluster A6 (APAP 6 hr)): 0.945
Apoa4 pct.1 (cluster A6 (APAP 6 hr)): 0.721
Apob avg_logFC (cluster A6 (APAP 6 hr)): 0.3564
Apob pct.1 (cluster A6 (APAP 6 hr)): 0.99
Apobec1 avg_logFC (cluster A6 (APAP 6 hr)): 0.2824
Apobec1 pct.1 (cluster A6 (APAP 6 hr)): 0.239
App avg_logFC (cluster A6 (APAP 6 hr)): 0.3291
App pct.1 (cluster A6 (APAP 6 hr)): 0.315
Asl avg_logFC (cluster A6 (APAP 6 hr)): 0.434
Asl pct.1 (cluster A6 (APAP 6 hr)): 0.826
B4galt5 avg_logFC (cluster A6 (APAP 6 hr)): 0.402
B4galt5 pct.1 (cluster A6 (APAP 6 hr)): 0.332
Bach1 avg_logFC (cluster A6 (APAP 6 hr)): 0.6724
Bach1 pct.1 (cluster A6 (APAP 6 hr)): 0.461
Bcl2l1 avg_logFC (cluster A6 (APAP 6 hr)): 0.6863
Bcl2l1 pct.1 (cluster A6 (APAP 6 hr)): 0.501
Btg1 avg_logFC (cluster A6 (APAP 6 hr)): 0.4265
Btg1 pct.1 (cluster A6 (APAP 6 hr)): 0.356
Btg2 avg_logFC (cluster A6 (APAP 6 hr)): 0.5388
Btg2 pct.1 (cluster A6 (APAP 6 hr)): 0.549
C1qa avg_logFC (cluster A6 (APAP 6 hr)): 0.471
C1qa pct.1 (cluster A6 (APAP 6 hr)): 0.174
C1qb avg_logFC (cluster A6 (APAP 6 hr)): 0.5946
C1qb pct.1 (cluster A6 (APAP 6 hr)): 0.234
C1qc avg_logFC (cluster A6 (APAP 6 hr)): 0.5477
C1qc pct.1 (cluster A6 (APAP 6 hr)): 0.172
C230081A13Rik avg_logFC (cluster A6 (APAP 6 hr)): 0.4148
C230081A13Rik pct.1 (cluster A6 (APAP 6 hr)): 0.279
Ccl6 avg_logFC (cluster A6 (APAP 6 hr)): 0.7552
Ccl6 pct.1 (cluster A6 (APAP 6 hr)): 0.274
Cd5l avg_logFC (cluster A6 (APAP 6 hr)): 0.5663
Cd5l pct.1 (cluster A6 (APAP 6 hr)): 0.21
Cd14 avg_logFC (cluster A6 (APAP 6 hr)): 0.3587
Cd14 pct.1 (cluster A6 (APAP 6 hr)): 0.153
Cd44 avg_logFC (cluster A6 (APAP 6 hr)): 0.2929
Cd44 pct.1 (cluster A6 (APAP 6 hr)): 0.115
Cd53 avg_logFC (cluster A6 (APAP 6 hr)): 0.2561
Cd53 pct.1 (cluster A6 (APAP 6 hr)): 0.103
Cd74 avg_logFC (cluster A6 (APAP 6 hr)): 0.4419
Cd74 pct.1 (cluster A6 (APAP 6 hr)): 0.155
Cd97 avg_logFC (cluster A6 (APAP 6 hr)): 0.3303
Cd97 pct.1 (cluster A6 (APAP 6 hr)): 0.115
Cd163 avg_logFC (cluster A6 (APAP 6 hr)): 0.4066
Cd163 pct.1 (cluster A6 (APAP 6 hr)): 0.146
Cdkn1a avg_logFC (cluster A6 (APAP 6 hr)): 1.099
Cdkn1a pct.1 (cluster A6 (APAP 6 hr)): 0.702
Cers6 avg_logFC (cluster A6 (APAP 6 hr)): 0.4774
Cers6 pct.1 (cluster A6 (APAP 6 hr)): 0.332
Ces1d avg_logFC (cluster A6 (APAP 6 hr)): 0.3854
Ces1d pct.1 (cluster A6 (APAP 6 hr)): 0.859
Cfp avg_logFC (cluster A6 (APAP 6 hr)): 0.3251
Cfp pct.1 (cluster A6 (APAP 6 hr)): 0.143
Chic2 avg_logFC (cluster A6 (APAP 6 hr)): 0.39
Chic2 pct.1 (cluster A6 (APAP 6 hr)): 0.37
Chka avg_logFC (cluster A6 (APAP 6 hr)): 1.387
Chka pct.1 (cluster A6 (APAP 6 hr)): 0.716
Cidec avg_logFC (cluster A6 (APAP 6 hr)): 0.3068
Cidec pct.1 (cluster A6 (APAP 6 hr)): 0.253
Clec4f avg_logFC (cluster A6 (APAP 6 hr)): 0.9909
Clec4f pct.1 (cluster A6 (APAP 6 hr)): 0.339
Clec4d avg_logFC (cluster A6 (APAP 6 hr)): 0.2622
Clec4d pct.1 (cluster A6 (APAP 6 hr)): 0.107
Cltc avg_logFC (cluster A6 (APAP 6 hr)): 0.6346
Cltc pct.1 (cluster A6 (APAP 6 hr)): 0.661
Creb3l2 avg_logFC (cluster A6 (APAP 6 hr)): 0.3363
Creb3l2 pct.1 (cluster A6 (APAP 6 hr)): 0.329
Ctsl avg_logFC (cluster A6 (APAP 6 hr)): 0.4384
Ctsl pct.1 (cluster A6 (APAP 6 hr)): 0.878
Ctss avg_logFC (cluster A6 (APAP 6 hr)): 0.7031
Ctss pct.1 (cluster A6 (APAP 6 hr)): 0.212
